Results published in patent US11208497B2, “Antibodies comprising C-terminal light chain polypeptide extensions and conjugates and methods of use thereof” (ZYMEWORKS INC., priority 2013, dated 2021).

System: CD30 antigen positive Karpas 299 cells
Experiment: In vitro cell proliferation assay, Karpas 299 cells (Example 18)
Format: cell-based

Question: Which EC50 does the source give for “B-MCvcPABC-MMAE: Brentuximab (B) without light chain extension conjugated to MCvcPABC-MMAE, DAR 3.5 [reference compound]” here?
Answer: Its EC50 is 8 pM.
